Data on four compounds can be found in ChEMBL document CHEMBL5143572, “Synthesis and evaluation of new potential anti-pseudo-allergic agents” (Bioorg Med Chem Lett, 2022).

Molecules are shown by their SMILES. Calls of active or inactive are those of the source. The calls are words filed in the database; no cut-off is given here.

Data set [1] deals with LAD2. Nature of the data set: Antiallergic activity in human LAD2 cells assessed as inhibition of C48/80-induced beta-hexosaminidase release. It counts as functional, cell-based. To be noted: dose 0.1-100 µM.
Data set [2] has as its system LAD2. Nature of the data set: Antiallergic activity in human LAD2 cells assessed as inhibition of C48/80-induced histamine release. The class given is functional, cell-based. As to conditions: dose 0.1-100 µM, DDE = dose-dependent effect.
Data set [3] deals with LAD2. Nature of the data set: Cytotoxicity against human LAD2 cells at 0.1 to 100 uM measured after 24 hrs. The class given is toxicity, cell-based. As to conditions: lad2, 24 h, dose 0.1-100 µM.
The target of data set [4] is T1, Mas-related G-protein coupled receptor member X2 (Homo sapiens) (UniProt Q96LB1).
T1 sequence (whole entry): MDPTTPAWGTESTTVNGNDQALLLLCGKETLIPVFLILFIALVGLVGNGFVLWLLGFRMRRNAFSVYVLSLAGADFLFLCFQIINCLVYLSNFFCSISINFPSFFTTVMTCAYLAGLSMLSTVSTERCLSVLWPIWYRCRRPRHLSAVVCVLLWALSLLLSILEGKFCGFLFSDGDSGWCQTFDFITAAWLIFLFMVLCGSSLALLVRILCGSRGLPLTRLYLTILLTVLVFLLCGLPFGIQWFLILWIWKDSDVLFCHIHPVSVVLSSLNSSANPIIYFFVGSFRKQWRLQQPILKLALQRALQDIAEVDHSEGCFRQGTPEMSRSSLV
Nature of the data set: Antagonist activity at MRGPRX2 (unknown origin) expressed in HEK293 cells assessed as inhibition of C48/80-induced Ca2+- mobilization. It counts as functional, cell-based. To be noted: filed as antagonist, dose 0.1-100 µM, DDE = dose-dependent effect.

For the compound `O=C(Nc1ccc(C(F)(F)F)cc1)Nc1nc(COc2ccc(CCCCn3ccnn3)cc2)co1`, the inhibition entry (with LAD2 [1] (DDE = dose-dependent effect); in the data set on LAD2 [2]; in data set [4]) was “Dde” each time. In the data set with LAD2 [3], the Activity result is reported as “Non-Toxic”.

As for `FC(F)(F)c1ccc(/C=C/c2nc(COc3ccc(CCCCn4ccnn4)cc3)co2)cc1`, the inhibition result with LAD2 [1] is “Active”.

On to `O=C(Nc1ccc(Sc2ccc3c(=O)[nH]cnc3c2)cc1)Nc1ccc(Cl)c(C(F)(F)F)c1`, for which the inhibition result in the data set on LAD2 [1] was “Active”.

Consider `O=C(Nc1ccc(Cl)c(C(F)(F)F)c1)Nc1nc(COc2ccc(CCCCn3ccnn3)cc2)co1`, for which the inhibition result (in the data set with LAD2 [1] (DDE = dose-dependent effect); with LAD2 [2]; in data set [4]) was “Dde” in each case. Also, the Activity result with LAD2 [3] is given as “Non-Toxic”.
